Data: patent US10154684B2, “Hair regrowth and growth promoter and use thereof” (PHARMA FOODS INTERNATIONAL CO., LTD., priority 2014, dated 2018)

Test system: C57BL/6 (female) mice
Experiment: Assessment of hair growth-promoting effect on androgen-induced telogen in C57BL/6 mice
Type: in vivo, mouse
Settings: DHT 2 mg/mL, 100 μL subcutaneously every other day, casein-containing feed, Day 14, vs no DHT
Experimental: C57BL/6 (female) mice available from Charles River Laboratories Japan, Inc. were used for the test. The animals were randomly divided into test groups so that the mean body weight was approximately equal between groups. The mice were housed three per cage at room temperature (25° C.) under a 12-hour light-dark cycle.
The mice at six weeks old purchased from the vendor were preliminarily bred for one week for acclimation to the test environment. A commercially available hair removal cream was applied to the dorsal region of the mice at an age of seven weeks old to remove the hair.
Until the start of the test, the mice were fed with free access to a solid CRF-1 feed (Oriental Yeast Co., Ltd.) and tap water as drinking water.
The hair of the 7-week-old C57BL/6 mice was in the telogen phase of the hair cycle, but due to the stimulation of hair removal, the hair gradually entered into the anagen phase. This transition in the hair cycle was hampered by administration of an androgen after the hair removal. […] From two days after the hair removal, the mixed feeds indicated in Table 5 were given with free access thereto.
On the final observation day (Day 14 of administration), the mice in the test and control groups were anesthetized and fixed on a photography table, and the hair removal region was photographed.

C[C@]12CCC(=O)C[C@@H]1CC[C@@H]1[C@@H]2CC[C@]2(C)[C@@H](O)CC[C@@H]12 [DHT, dihydrotestosterone]
Blackening of the dorsal skin after hair removal: inhibited
